Laboratory results: patent US20130089907A1, “HYDROGEN PRODUCTION METHOD USING ALCOHOL AND PHOTOSYNTHETIC BACTERIA” (priority 2010, published 2013)
“And” between values parts separate entries of the source, which are not always exact repeats. Identical values can stand only once. Like-named read-outs stand apart in the source and are kept apart here.

Tests used:
R. sphaeroides [1] = assay: Hydrogen production by R. sphaeroides under photosynthetic condition in the presence of alcohol (GC of gas phase); assay type: cell-based, Rhodobacter sphaeroides; settings: for efficiency of hydrogen production: 10 Watts/m^2, 30° C., anaerobic
Protocol: For the hydrogen production, R. sphaeroides 2.4.1(ATCC BAA-808, Cohen-Bazire et al. 1956. J. Cell. Comp. Physiol. 49: 25-68) or R. sphaeroides KCTC 12085 were used. To grow the cells, basically Sistrom minimal medium [20 mM KH2PO4, 3.8 mM (NH4)2SO4, 34 mM succinate, 0.59 mM L-glutamate, 0.30 mM L-aspartate, 8.5 mM NaCl, 1.05 mM nitrilotriacetic acid, 1.2 mM MgCl26H2O, 0.23 mM CaCl27H2O, 25 µM FeSO47H2O, 0.16 M (NH4)6Mo7O244H2O, 4.7 M EDTA, 38 M ZnSO47H2O, 9.1 M MnSO4H2O, 1.6 M CuSO45H2O, 0.85 M Co(NO3)26H2O (II), 1.8 M H3BO3, 8.1 M Nicotinic acid, 1.5 M Thiamine HCl, 41 nM biotin (Sistrom, W. R, 1962. J. Gen. Microbiol. 28: 607-616)] were used with the following modifications. To optimize the activity of nitrogenase, Ammonium molybdate was replaced with the same amount of Sodium molybdate, or 7 mM of L-glutamate was used instead of ammonium sulfate, or succinate was replaced with 30 mM malate. To investigate the effect of ammonium, 2 mM Ammonium chloride was added.
R. sphaeroides was inoculated at the concentration of 10^8 CFU/ml in 10 ml of Sistrom minimal medium and incubated for 120 hrs. to test the hydrogen production at the following condition: 10 Watts/m^2, 30° C., anaerobic. To measure the hydrogen produced, the cells were incubated in a serum vial which was air tight. Before use the air in the vial was replaced with argon gas to remove oxygen. During the reaction, an aliquot of gas in the gas phase was sampled from the vial using the gas-tight syringe, which was further analyzed by a Gas Chromatography (GC, Shimadzu, Japan).
(§1) Each strain was inoculated to the medium as described above at 10^8 CFU/ml and incubated for 120 hours under the following condition: 10 Watts/m^2 of light, 30° C., and anaerobic condition and the amount of hydrogen produced was tested. The ethanol was added at 0.2 vol % and the cell growth, and hydrogen production and analysis were performed as described in Example 1.
To determine the optimal concentration and time of the alcohol added, the accumulated amount of hydrogen produced was measured in R. sphaeroides in the presence of varying amounts of ethanol from 0.01 vol % to 2 vol % (volume/volume %) by incubating them under the same condition as described in Example 1.
In addition to ethanol, other alcohols, that is, methanol (CH3OH), propanol (CH3CH2CH2OH), isopropanol [(CH3)2CHOH], butanol [CH3(CH2)2CH2OH], isoamyl alcohol, [(CH3)2CHCH2CH2OH] were tested. Under the same condition as used in Example 1, each alcohol was added to the cells at the concentration of 0.1%, 0.2%, 0.5%, or 1.0%.

nitrogenase = test system: nitrogenase
Protocol: The activity of nitrogenase was measured by the rate of ethylene (C2H4) produced using the acetylene (C2H2) as a substrate. The nitrogenase has an ability to produce hydrogen and ethylene by reducing proton (H+) and acetylene in addition to using N2 as substrate (Kern et al. 1992. Appl. Microbiol. Biotechnol. 37: 496-500). The activity of the nitrogenase was measured by incubating R. sphaeroides under the photosynthetic condition of 10 Watts/m^2 of light. 10 ml of the bacteria (10^8 CFU/ml) was placed in a serum vial (65 ml) and incubated under the light until the KU (Klett Unit) reached 150 to 200. To prevent the de novo protein synthesis during the incubation period, chloramphenicol was used at 50 μg/ml and the air in the vial was replaced with argon before use. Acetylene was injected into the vial to occupy 10% of the entire air phase using a gas-tight syringe. The cells were first incubated for 10 min without light and the reaction started under the 10 Watts/m^2 light. The amount of ethylene produced was measured by withdrawing an aliquot of the gas in the gas phase using a gas-tight syringe and by subject them to GC analysis.

[2] = test system: Rhodobacter capsulatus SB1003; settings: R. capsulatus; ethanol 0.2 vol %; modified Sistrom medium depleted with ammonium ion; 120 hours
Protocol: Rhodobacter capsulatus SB1003 and Rhodospirillum rubrum UR1 selected for the experiment due to their well characterization. For the growth of R. capsulatus, a modified Sistrom medium depleted with ammonium ion was used; and for the growth of R. rubrum, MG minimal medium was used as described in Lehman and Roberts. 1991. J. Bacteriol. 173: 5705-5711.
as §1

R. sphaeroides [3] = test system: R. sphaeroides
Protocol: The wild type R. sphaeroides cells were grown under 10 Watts/m^2 of light as described in Example 1 and tested for the production of hydrogen.
The hydrogen produced was analyzed as described in Example 1.

[4] = concentration not stated (tested at 0.1%, 0.2%, 0.5%, or 1.0%)

## CO [Methanol, methanol]
R. sphaeroides [1]; alcohol at 0.1%, 0.2%, and 0.5%
  hydrogen production: increased
R. sphaeroides [1]; alcohol at 1.0%
  cell growth: inhibit the cell growth
R. sphaeroides [1]; tested at 0.1%, 0.2%, 0.5%, or 1.0%
  concentration with the highest effect on hydrogen production: 0.2%

## CCO [ethanol]
R. sphaeroides [1]; 2% ethanol
  growth of cells: inhibited the growth
  hydrogen produced: very much decreased
R. sphaeroides [1]; R. sphaeroides, ethanol 0.2 vol %, 120 hours
  fold increase (hydrogen produced in the presence of alcohol/in the absence of alcohol): 2.21 fold
R. sphaeroides [1]; ethanol 0.1 vol % and 0.5 vol %, Sistrom medium containing ammonium ion
  growth of bacteria: not affected
R. sphaeroides [1]; ethanol 0.1 vol % or 0.5 vol % vs control without ethanol
  hydrogen production, times higher than the control: 10 times
R. sphaeroides [1]; ethanol 0.1 vol %, Sistrom medium containing ammonium ion
  efficiency of hydrogen production: 5.04 mole H2/mole succinate
R. sphaeroides [1]; ethanol 0.5 vol % added with inoculation (10 KU) or at 100 KU compared to addition at 300 KU, FIG. 5
  effect on hydrogen production by time of addition: higher increasing effect on the hydrogen production
R. sphaeroides [1]; ethanol 0.5 vol %, Sistrom medium containing ammonium ion
  efficiency of hydrogen production: 5.72 mole H2/mole succinate
R. sphaeroides [1]; ethanol 0.5 vol %, Sistrom medium containing ammonium ion, FIG. 3
  accumulated hydrogen production, wild type strain: increased hydrogen production
R. sphaeroides [1]; ethanol less than 0.05%
  hydrogen production: not shown to increase
nitrogenase; 0.2 vol % ethanol vs control without ethanol
  activity of nitrogenase, times higher than the control: 4 times
nitrogenase; 0.2 vol % of EtOH, 10 Watts/m^2 light
  activity of nitrogenase: 18.2 nmole KU^−1 h^−1
[2]
  fold increase (hydrogen produced in the presence of alcohol/in the absence of alcohol): 1.5 fold and 1.53 fold
R. sphaeroides [3]; 0.2% ethanol, modified medium, FIG. 4
  hydrogen gas producing ability remained in 2 mM ammonium ion compared to 0 mM ammonium ion: not less than 80%
R. sphaeroides [3]; after the addition of ethanol
  nitrogenase activity remained in the presence of ammonium ion: more than 80%

## CC(C)CCO [isoamyl alcohol]
R. sphaeroides [1]; [4]
  hydrogen production: decrease the hydrogen production

## CC(C)O [isopropanol]
R. sphaeroides [1]; [4]
  increase of hydrogen production: about 35%

## CCCO [propanol]
R. sphaeroides [1]
  concentration with the highest effect on hydrogen production: 0.5%
  hydrogen production: increased

## butanol
R. sphaeroides [1]
  concentration with the highest effect on hydrogen production: 0.2%
  hydrogen production: increased
